One experiment deals with T1, PI3Kδ (Homo sapiens, UniProt O00329).
T1 construct: purchased Millipore 14-604-K
Description: In vitro kinase activity (LabChip EZ Reader mobility shift), PI3Kδ. Type of experiment: biochemical. The note with it: for IC50: kinase subtype PI3Kδ (p110δ/p85a). How it is done:
(§1) Compounds: the compounds prepared in above examples of the present invention, each of which was prepared to a concentration of 10 mM in DMSO and diluted to […], 100 nM, 10 nM, 1 nM, 0.1 nM, 0.01 nM successively.
(§2) Reagents: PI3Kα (p110α(p85a), purchased from Invitrogen, Cat.No. PV4788; PIK3Cδ (p110δ/p85a), purchased from Millipore, Cat.No. 14-604-K; PIK3Cβ (p110β), purchased from Millipore, Cat.No. 14-603-K; PIK3Cγ (pp110γ), purchased from Invitrogen, Cat.No. PR8641C; DMSO, purchased from Sigma; EDTA, purchased from Sigma; 1× kinase buffer (50 mM HEPES, pH 7.5, 0.0015% Brij-35, 10 mM MgCl2, 2 mM DTT), which was prepared before use; termination solution (100 mM HEPES, pH 7.5, 0.015% Brij-35, 0.2% Coating Reagent#3, 50 mM EDTA), which was prepared before use.
(§3) Instruments: LabChip EZ Reader purchased from Caliper, USA.
(§4) 2.1 10 μl solution of each concentration of each compound was placed into 96-well plate and 90 μl of 1× kinase buffer was added. DMSO control group and control group without kinase activity were set up, which all contained 10 μl DMSO and 90 μl of 1× kinase buffer. Each group was mixed well at room temperature for 10 min, and then 5 μl of each group was transferred to a 384-well plate.
(§5) 2.2 Kinases were dissolved in 1× kinase buffer to prepare a 2.5× kinase solution. 10 μl of 2.5× kinase solution was transferred to the 384-well plate containing compounds of different concentrations. 10 μl of 2.5× kinase solution was added to DMSO control group and 10 μl of 1× kinase buffer without kinase was added to control group without kinase activity. The plate was incubated at room temperature for 10 min.
(§6) 2.3 ATP and the polypeptide labeled with FAM were dissolved in 1× kinase buffer to prepare 2.5× substrate solution. Then 10 μl of 2.5× substrate solution was transferred to the 384-well plate and incubated at 28° C. for 1 h.
(§7) 2.4 25 μl of termination solution was added to each well to terminate the reaction.
(§8) 2.5 The plate was placed on the LabChip EZ Reader to read the data of conversion rate and inhibitory rate (1%) was calculated according to formula: I %=(Max−Com)/(Max−Min)×100, wherein Max was the conversion rate of DMSO control group, Min was the conversion rate of control group without kinase activity, Com was the conversion rate of compound treatment group. IC50 was fitted by XLfit processing of the data.

A further experiment concerns the target T2, PI3Kα (Homo sapiens, UniProt P42336).
T2 construct: purchased Invitrogen PV4788
As to the kind of experiment: In vitro kinase activity (LabChip EZ Reader mobility shift), PI3Kα. Type of experiment: biochemical. The note with it: kinase subtype PI3Kα (p110α/p85a). How it is done:
as §1, §2, §3, §4, §5, §6, §7, §8

The target in the next experiment is T3, PI3Kβ (Homo sapiens, UniProt P42338).
T3 construct: purchased Millipore 14-603-K
As to the kind of experiment: In vitro kinase activity (LabChip EZ Reader mobility shift), PI3Kβ. The note with it: kinase subtype PI3Kβ (p110β). Type of experiment: biochemical. How it is done:
as §1, §2, §3, §4, §5, §6, §7, §8

Another experiment addresses T4, PI3Kγ (Homo sapiens, UniProt P48736).
T4 construct: purchased Invitrogen PR8641C
As to the kind of experiment: In vitro kinase activity (LabChip EZ Reader mobility shift), PI3Kγ. Type of experiment: biochemical. The note with it: kinase subtype PI3Kγ (p110γ). The protocol: as §1, §2, §3, §4, §5, §6, §7, §8

The test system of the next experiment is SU-DHL-5 lymphoma cells. As to the kind of experiment: In vitro cell activity, CellTiter-Glo cell viability, SU-DHL-5. Type of experiment: cell-based. The note with it: Homo sapiens, SU-DHL-5 lymphoma cell line, 72 h. How it is done: Compounds: the compounds prepared in above examples of the present invention, each of which was prepared to a concentration of 10 mM in DMSO and diluted 3 times to 20000.00 nM, 6666.67 nM, 2222.22 nM, 740.74 nM, 246.91 nM, 27.43 nM, 9.14 nM, 3.05 nM successively.
The lymphoma cell lines SU-DHL-5 and SU-DHL-6 were purchased from the American Type Culture Collection (ATCC).
Reagents: PRMI-1640, purchased from Invitrogen (USA); FBS, purchased from Invitrogen (USA); EDTA, purchased from Sigma (USA); CellTiter-Glo® Luminescent Cell Viability Assay Kit, purchased from Progema (USA); Backseal membrane, purchased from Perkin Elmer (USA).
The cells were thawed in a 37° C. water bath and then transferred to 15 ml preheated medium. The cells were centrifuged at 1000 rpm for 5 min and the medium was discarded. The cells were resuspended in 15 ml fresh medium and transferred to T75 culture flask and incubated in an incubator at 37° C. with 5% CO2. The medium was replaced with fresh medium 24 h later.
The resuscitated cells above were transferred to a 50 ml sterile centrifuge tube and centrifuged at 1000 rpm for 5 min. The medium was discarded, and the cells were dispersed uniformly and counted. The appropriate cell concentration was adjusted in 15 ml fresh medium and added to T75 culture flask. The flask was incubated in an incubator at 37° C. with 5% CO2.
When the cells in the T75 culture flask grew to 1×10^5˜1×10^6 cells/ml, the cells were resuspended with fresh medium (RPMI-1640+20% FBS) and counted. The resuspended cells were adjusted to the following eight concentrations: 1×10^4 cells/ml, 2×10^4 cells/ml, 3×10^4 cells/ml, 5×10^4 cells/ml, 8×10^4 cells/ml, 1×10^5 cells/ml, 1.5×10^5 cells/ml, and 2×10^5 cells/ml. The above cell suspensions were added to 96-well cell culture plate, 100 μl each well (1×10^3 cells/ml, 2×10^3 cells/ml, 3×10^3 cells/ml, 5×10^3 cells/ml, 8×10^3 cells/ml, 1×10^4 cells/ml, 1.5×10^4 cells/ml, and 2×10^4 cells/ml, respectively). Each concentration was done double in three plates. 72 h later, 100 μl CellTiter-Glo® Luminescent Cell Viability Assay buffer was added to test wells and shaken gently. 10 min later, the Assay plate was attached at the bottom by Backseal membrane and placed on Envison to detect the fluorescence reading. Cell survive (%) was calculated according to the formula: cell survive (%)=(Com−Min)/(Max−Min), wherein Max was the reading of solvent control group, Min was the reading of control group without cells, and Com was the reading of compound treatment group.

The structures appear in SMILES notation. Bounds are passed on as bounds.

T1 sequence (O00329 whole entry): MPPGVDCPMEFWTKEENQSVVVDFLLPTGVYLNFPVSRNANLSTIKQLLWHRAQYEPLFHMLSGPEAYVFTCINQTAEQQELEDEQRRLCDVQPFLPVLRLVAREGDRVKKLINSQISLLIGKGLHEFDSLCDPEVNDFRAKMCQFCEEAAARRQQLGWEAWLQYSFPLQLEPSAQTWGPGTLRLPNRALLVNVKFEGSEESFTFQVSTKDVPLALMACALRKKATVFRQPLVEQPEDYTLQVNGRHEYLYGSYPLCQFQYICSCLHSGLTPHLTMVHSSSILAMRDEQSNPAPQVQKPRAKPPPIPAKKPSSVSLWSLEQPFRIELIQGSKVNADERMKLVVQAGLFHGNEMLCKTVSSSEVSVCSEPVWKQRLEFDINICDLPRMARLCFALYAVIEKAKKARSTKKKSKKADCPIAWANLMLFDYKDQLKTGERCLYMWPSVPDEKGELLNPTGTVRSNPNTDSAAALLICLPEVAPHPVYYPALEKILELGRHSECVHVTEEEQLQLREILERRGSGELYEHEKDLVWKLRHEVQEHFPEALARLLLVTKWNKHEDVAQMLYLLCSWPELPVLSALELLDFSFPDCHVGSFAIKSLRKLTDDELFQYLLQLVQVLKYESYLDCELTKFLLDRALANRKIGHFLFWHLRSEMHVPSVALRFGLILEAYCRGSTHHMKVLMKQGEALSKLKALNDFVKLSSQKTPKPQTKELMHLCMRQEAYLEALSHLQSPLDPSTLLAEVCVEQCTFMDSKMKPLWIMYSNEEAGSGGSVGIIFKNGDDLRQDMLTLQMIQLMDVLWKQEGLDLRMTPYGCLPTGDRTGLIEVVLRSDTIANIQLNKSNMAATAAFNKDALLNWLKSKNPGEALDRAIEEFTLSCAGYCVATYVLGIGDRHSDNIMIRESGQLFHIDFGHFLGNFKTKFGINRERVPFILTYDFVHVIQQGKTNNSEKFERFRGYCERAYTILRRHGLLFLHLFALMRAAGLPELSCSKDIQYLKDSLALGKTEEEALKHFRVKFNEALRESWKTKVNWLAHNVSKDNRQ
T1 sequence (P27986 whole entry partner): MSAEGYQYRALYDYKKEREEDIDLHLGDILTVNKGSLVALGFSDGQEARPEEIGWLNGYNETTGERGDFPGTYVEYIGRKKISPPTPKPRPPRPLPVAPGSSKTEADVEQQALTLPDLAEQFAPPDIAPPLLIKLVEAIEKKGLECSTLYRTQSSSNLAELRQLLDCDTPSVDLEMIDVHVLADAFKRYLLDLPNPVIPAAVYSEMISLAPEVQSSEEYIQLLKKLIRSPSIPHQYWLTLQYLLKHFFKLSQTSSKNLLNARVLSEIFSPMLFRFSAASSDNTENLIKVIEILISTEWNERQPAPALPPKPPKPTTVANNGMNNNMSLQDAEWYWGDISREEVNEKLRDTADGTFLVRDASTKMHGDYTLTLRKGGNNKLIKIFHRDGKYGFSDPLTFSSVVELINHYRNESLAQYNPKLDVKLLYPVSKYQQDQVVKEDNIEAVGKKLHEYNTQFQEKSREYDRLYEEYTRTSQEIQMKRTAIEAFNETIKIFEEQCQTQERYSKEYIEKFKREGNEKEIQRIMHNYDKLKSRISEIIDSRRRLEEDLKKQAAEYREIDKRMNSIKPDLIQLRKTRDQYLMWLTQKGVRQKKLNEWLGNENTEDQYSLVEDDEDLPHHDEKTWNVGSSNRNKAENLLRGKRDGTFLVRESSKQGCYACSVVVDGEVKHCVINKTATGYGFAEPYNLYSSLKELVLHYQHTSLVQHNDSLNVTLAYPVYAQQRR
T2 sequence (P42336 whole entry): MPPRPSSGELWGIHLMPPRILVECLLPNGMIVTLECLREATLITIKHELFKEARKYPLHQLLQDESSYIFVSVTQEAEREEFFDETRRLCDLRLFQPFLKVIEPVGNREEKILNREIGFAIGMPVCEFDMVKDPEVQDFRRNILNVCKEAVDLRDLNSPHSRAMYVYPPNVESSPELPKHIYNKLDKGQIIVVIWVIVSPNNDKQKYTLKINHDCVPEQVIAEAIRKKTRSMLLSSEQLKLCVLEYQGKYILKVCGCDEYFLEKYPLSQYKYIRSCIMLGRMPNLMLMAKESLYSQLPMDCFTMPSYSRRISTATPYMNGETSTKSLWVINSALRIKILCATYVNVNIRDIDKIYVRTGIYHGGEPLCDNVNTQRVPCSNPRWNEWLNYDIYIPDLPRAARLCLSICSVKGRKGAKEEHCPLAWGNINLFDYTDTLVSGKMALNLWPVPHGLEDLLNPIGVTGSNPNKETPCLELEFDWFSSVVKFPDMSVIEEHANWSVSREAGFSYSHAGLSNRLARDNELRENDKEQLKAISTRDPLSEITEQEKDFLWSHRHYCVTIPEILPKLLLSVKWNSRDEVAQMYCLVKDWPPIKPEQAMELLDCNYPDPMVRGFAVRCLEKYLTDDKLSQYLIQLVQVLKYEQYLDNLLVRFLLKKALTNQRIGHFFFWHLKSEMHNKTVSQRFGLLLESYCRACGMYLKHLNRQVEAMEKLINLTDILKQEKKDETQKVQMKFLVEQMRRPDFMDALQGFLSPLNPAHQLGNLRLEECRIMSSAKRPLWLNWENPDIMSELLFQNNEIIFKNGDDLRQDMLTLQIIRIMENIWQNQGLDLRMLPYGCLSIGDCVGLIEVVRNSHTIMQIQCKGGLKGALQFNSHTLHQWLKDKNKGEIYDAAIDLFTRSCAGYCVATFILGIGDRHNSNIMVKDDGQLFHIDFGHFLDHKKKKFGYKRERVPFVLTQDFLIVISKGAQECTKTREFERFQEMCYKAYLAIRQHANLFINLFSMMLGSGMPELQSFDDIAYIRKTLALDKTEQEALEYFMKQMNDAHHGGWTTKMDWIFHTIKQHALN
T2 sequence (P27986 whole entry partner): as the sequence (P27986 whole entry partner) above
T4 sequence (P48736 whole entry): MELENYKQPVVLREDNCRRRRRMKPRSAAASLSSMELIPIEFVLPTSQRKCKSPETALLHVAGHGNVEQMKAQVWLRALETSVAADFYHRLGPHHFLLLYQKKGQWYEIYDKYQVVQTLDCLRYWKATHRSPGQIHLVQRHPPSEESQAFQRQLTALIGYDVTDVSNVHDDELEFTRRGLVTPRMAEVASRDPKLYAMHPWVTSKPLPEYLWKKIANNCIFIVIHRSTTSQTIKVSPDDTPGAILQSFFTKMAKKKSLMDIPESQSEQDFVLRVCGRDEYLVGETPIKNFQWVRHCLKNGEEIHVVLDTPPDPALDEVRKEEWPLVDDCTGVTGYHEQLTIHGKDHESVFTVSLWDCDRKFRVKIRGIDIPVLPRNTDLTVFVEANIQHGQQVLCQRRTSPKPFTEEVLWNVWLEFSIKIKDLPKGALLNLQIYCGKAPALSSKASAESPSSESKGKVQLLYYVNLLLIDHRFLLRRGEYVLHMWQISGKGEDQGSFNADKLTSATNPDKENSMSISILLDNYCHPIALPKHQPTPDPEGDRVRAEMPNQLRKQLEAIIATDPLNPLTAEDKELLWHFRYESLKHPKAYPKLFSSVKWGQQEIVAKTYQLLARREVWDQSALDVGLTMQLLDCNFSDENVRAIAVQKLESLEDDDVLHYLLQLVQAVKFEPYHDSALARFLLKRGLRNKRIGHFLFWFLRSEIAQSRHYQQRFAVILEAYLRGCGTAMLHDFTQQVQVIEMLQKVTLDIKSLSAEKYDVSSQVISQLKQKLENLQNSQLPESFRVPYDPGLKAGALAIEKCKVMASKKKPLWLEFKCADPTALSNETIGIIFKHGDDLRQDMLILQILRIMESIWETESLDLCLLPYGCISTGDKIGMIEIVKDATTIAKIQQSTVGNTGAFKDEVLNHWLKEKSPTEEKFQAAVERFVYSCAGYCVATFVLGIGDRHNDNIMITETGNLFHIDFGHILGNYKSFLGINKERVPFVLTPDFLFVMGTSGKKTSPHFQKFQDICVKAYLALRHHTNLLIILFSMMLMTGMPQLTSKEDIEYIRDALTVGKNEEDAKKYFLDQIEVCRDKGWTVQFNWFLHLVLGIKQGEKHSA
T3 sequence (P42338 whole entry): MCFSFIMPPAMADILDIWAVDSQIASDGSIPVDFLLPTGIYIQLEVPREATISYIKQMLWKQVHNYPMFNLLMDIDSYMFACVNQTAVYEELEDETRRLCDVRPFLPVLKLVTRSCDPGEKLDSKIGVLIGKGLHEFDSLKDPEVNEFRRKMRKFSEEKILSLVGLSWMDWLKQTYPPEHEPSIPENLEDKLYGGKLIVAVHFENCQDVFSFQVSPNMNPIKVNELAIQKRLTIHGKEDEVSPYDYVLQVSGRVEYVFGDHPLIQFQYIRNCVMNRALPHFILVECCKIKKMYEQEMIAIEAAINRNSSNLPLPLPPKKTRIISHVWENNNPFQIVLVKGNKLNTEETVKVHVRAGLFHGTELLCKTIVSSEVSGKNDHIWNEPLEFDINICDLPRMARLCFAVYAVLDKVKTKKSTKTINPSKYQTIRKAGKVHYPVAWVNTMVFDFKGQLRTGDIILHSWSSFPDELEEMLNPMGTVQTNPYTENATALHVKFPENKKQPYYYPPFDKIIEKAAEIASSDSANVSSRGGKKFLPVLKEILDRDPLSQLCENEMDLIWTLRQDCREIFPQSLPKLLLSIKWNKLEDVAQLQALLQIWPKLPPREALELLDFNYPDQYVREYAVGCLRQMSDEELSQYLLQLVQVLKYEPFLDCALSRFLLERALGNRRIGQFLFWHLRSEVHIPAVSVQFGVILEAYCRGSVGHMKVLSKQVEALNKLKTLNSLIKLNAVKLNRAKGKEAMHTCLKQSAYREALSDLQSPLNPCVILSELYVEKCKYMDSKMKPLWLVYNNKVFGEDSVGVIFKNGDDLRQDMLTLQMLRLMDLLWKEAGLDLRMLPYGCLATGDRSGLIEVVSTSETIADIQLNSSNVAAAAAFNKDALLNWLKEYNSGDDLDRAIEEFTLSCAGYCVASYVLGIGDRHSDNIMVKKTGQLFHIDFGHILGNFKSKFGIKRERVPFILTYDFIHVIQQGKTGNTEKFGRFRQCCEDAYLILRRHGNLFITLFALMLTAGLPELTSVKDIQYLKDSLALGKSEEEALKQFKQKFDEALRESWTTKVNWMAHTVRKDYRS
T3 sequence (P27986 whole entry partner): as the sequence (P27986 whole entry partner) above

As usually defined, the IC50 is the midpoint of a concentration-inhibition curve. With `CC(Nc1ncnc(N)c1C#N)c1c(-c2cc(F)cc(F)c2)c(=O)c2cc(F)ccc2n1C` (stereo not shown) [Comparative Example 1, 4-Amino-5-cyano-6-(1-(3-(3,5-difluorophenyl)-6-fluoro-1-methyl-4-oxo-1,4-dihydroquinoline-2-yl)ethylamino)pyrimidine, reference compound], the “selectivity (PI3Kδ over the other PI3K subtypes), in words” value on PI3Kδ (PI3Kδ versus PI3Kα, PI3Kβ, PI3Kγ) is on record as “poor”. Also, the IC50 on PI3Kδ came to 20 nM.

On to `N#Cc1c(N)nc(N)nc1NCc1c(-c2ccccc2)oc2ccccc2c1=O` [Example 2, 2,4-Diamino-5-cyano-6-(4-oxo-2-phenyl-4H-chromen-3-yl) methylaminopyrimidine], for which the IC50 at PI3Kδ came out at 13.5 nM.

On to `CC(Nc1ncnc(N)c1C#N)c1c(-c2ccccc2)oc2ccccc2c1=O` (stereo not shown) [Example 3, 4-Amino-5-cyano-6-(1-(4-oxo-2-phenyl-4H-chromen-3-yl)ethylamino) pyrimidine], for which the IC50 on PI3Kδ is 17 nM; on PI3Kα, above 1000 nM; at PI3Kβ, above 1000 nM; on PI3Kγ, above 1000 nM; with SU-DHL-5 lymphoma cells it was 0.86 µM.

`CC(Nc1ncnc(N)c1C#N)c1c(-c2ccccc2)oc2c(Cl)cccc2c1=O` (stereo not shown) [Example 5, 4-Amino-5-cyano-6-(1-(8-chloro-4-oxo-2-phenyl-4H-chromen-3-yl)ethylamino) pyrimidine]: the IC50 is 11 nM on PI3Kδ; above 1000 nM at PI3Kα; above 1000 nM at PI3Kβ; above 1000 nM on PI3Kγ; 0.61 µM in the experiment on SU-DHL-5 lymphoma cells.

As to `CC(Nc1nc(N)nc(N)c1C#N)c1c(-c2ccccc2)oc2c(Cl)cccc2c1=O` (stereo not shown) [Example 6, 2,4-Diamino-5-cyano-6-(1-(8-chloro-4-oxo-2-phenyl-4H-chromen-3-yl)ethylamino)pyrimidine], the IC50 at PI3Kδ was 9.5 nM; at PI3Kα, above 1000 nM; at PI3Kβ, 881 nM; on PI3Kγ, 84 nM; in the experiment with SU-DHL-5 lymphoma cells it was 1.23 µM.

For `CC(Nc1ncnc(N)c1C#N)c1c(-c2ccccc2)oc2c(F)cccc2c1=O` (stereo not shown) [Example 7, 4-Amino-5-cyano-6-(1-(8-fluoro-4-oxo-2-phenyl-4H-chromen-3-yl)ethylamino) pyrimidine], the concentration for half-maximal inhibition (IC50) is 5 nM on PI3Kδ; above 1000 nM on PI3Kα; above 1000 nM on PI3Kβ; above 1000 nM on PI3Kγ; 1.43 µM in the experiment with SU-DHL-5 lymphoma cells.

Turning to `CC(Nc1nc(N)nc(N)c1C#N)c1c(-c2ccccc2)oc2c(F)cccc2c1=O` (stereo not shown) [Example 8, 2,4-Diamino-5-cyano-6-(1-(8-fluoro-4-oxo-2-phenyl-4H-chromen-3-yl)ethylamino) pyrimidine], the IC50 at PI3Kδ was 6.6 nM; on PI3Kα, above 1000 nM; at PI3Kβ it was 385 nM; on PI3Kγ it was 134 nM; with SU-DHL-5 lymphoma cells, 1.02 µM.

For `CC(Nc1ncnc(N)c1C#N)c1c(-c2ccccc2)[nH]c2c(Cl)cccc2c1=O` (stereo not shown) [Example 9, 4-Amino-5-cyano-6-((1-(8-chloro-4-oxo-2-phenyl-1,4-dihydroquinolin-3-yl)ethyl)amino)pyrimidine], the concentration for half-maximal inhibition (IC50) at PI3Kδ came to 3.8 nM; at PI3Kα it was 219 nM; on PI3Kβ, 139 nM; on PI3Kγ, 66 nM; with SU-DHL-5 lymphoma cells, 0.58 µM.

Regarding `CC(Nc1nc(N)nc(N)c1C#N)c1c(-c2ccccc2)[nH]c2ccccc2c1=O` (stereo not shown) [Example 22, 2,4-Diamino-5-cyano-6-((1-(4-oxo-2-phenyl-1,4-dihydroquinolin-3-yl)ethyl)amino)pyrimidine], the concentration for half-maximal inhibition (IC50) at PI3Kδ stood at 11 nM; on PI3Kα it was 675 nM; on PI3Kβ, 635 nM; on PI3Kγ it was 60 nM.

Consider `CC(Nc1nc(N)nc(N)c1C#N)c1c(-c2ccccc2)[nH]c2c(Cl)cccc2c1=O` (stereo not shown) [Example 23, 2,4-Diamino-5-cyano-6-((1-(8-chloro-4-oxo-2-phenyl-1,4-dihydroquinolin-3-yl)ethyl)amino)pyrimidine], for which the IC50 came to 1.4 nM on PI3Kδ, 114 nM on PI3Kα, 60 nM at PI3Kβ and 5.7 nM at PI3Kγ.

`CC(Nc1nc(N)nc(N)c1C#N)c1c(-c2ccccc2)n(C)c2ccccc2c1=O` (stereo not shown) [Example 25, 2,4-Diamino-5-cyano-6-((1-(1-methyl-4-oxo-2-phenyl-1,4-dihydroquinolin-3-yl)ethyl)amino) pyrimidine]: the half-maximal inhibitory concentration (IC50) at PI3Kδ is 1.8 nM; on PI3Kα, 127 nM; on PI3Kβ, 113 nM; on PI3Kγ, 21 nM.

With `CC(Nc1ncnc(N)c1C#N)c1c(-c2cccc(F)c2)n(C)c2ccccc2c1=O` (stereo not shown) [Example 26, 4-Amino-5-cyano-6-((1-(1-methyl-4-oxo-2-(3-fluorophenyl)-1,4-dihydroquinolin-3-yl)ethyl)amino) pyrimidine], the IC50 at PI3Kδ is 2.3 nM; on PI3Kα, above 1000 nM; on PI3Kβ, 972 nM; at PI3Kγ, 814 nM.

On to `CC(Nc1nc(N)nc(N)c1C#N)c1c(-c2ccccc2)n(C)c2c(Cl)cccc2c1=O` (stereo not shown) [Example 27, 2,4-Diamino-5-cyano-6-((1-(8-chloro-1-methyl-4-oxo-2-phenyl-1,4-dihydroquinolin-3-yl)ethyl)amino)pyrimidine], for which the IC50 at PI3Kδ came to 1.4 nM; on PI3Kα, 39 nM; on PI3Kβ it was 38 nM; on PI3Kγ it was 11 nM.

In the case of `CC(Nc1nc(N)nc(N)c1C#N)c1c(-c2cccc(F)c2)oc2ccccc2c1=O` (stereo not shown) [Example 30, 2,4-Diamino-5-cyano-6-(1-(2-(3-fluorophenyl)-4-oxo-4H-chromen-3-yl)ethylamino) pyrimidine], the half-inhibitory concentration (IC50) on PI3Kδ is 3.6 nM; on PI3Kα it was above 1000 nM; at PI3Kβ, above 1000 nM; at PI3Kγ it was 155 nM.

Take `CCC(Nc1nc(N)nc(N)c1C#N)c1c(-c2ccccc2)oc2ccccc2c1=O` (stereo not shown) [Example 32, 2,4-Diamino-5-cyano-6-(1-(4-oxo-2-phenyl-4H-chromen-3-yl)propylamino) pyrimidine]: the concentration for half-maximal inhibition (IC50) was 4.8 nM on PI3Kδ, above 1000 nM at PI3Kα, above 1000 nM at PI3Kβ and 673 nM at PI3Kγ.

Values taken from patent US10077258B2, “Substituted pyrimidine compounds as phosphatidylinositol 3-kinase delta inhibitor and use thereof” (NANJING SANHOME PHARMACEUTICAL CO., LTD., priority 2015, dated 2018).
